In PubChem BioAssay (NCI):
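Where inhibition never reached the appropriate level, the endpoint shown equals the highest concentration tested. Otherwise, values were interpolated linearly from a five-concentration, 48-hour dose response in 96-well plates. Here, GI50 denotes the concentration required for 50% inhibition of growth. TGI: total growth inhibition.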

What was measured:
Assay in all cases: NCI anticancer screen, dose series, 48 h
SF-268 CNS = test system: SF-268 CNS
786-0 renal = test system: 786-0 renal
MDA-MB-435 = test system: MDA-MB-435
K-562 leukemia = test system: K-562 leukemia
CAKI-1 renal = test system: CAKI-1 renal
EKVX NSCLC = test system: EKVX NSCLC
MOLT-4 leukemia = test system: MOLT-4 leukemia
SNB-19 CNS = test system: SNB-19 CNS
U251 CNS = test system: U251 CNS
HOP-92 NSCLC = test system: HOP-92 NSCLC
BT-549 breast = test system: BT-549 breast

| SMILES | TGI (SF-268 CNS) | TGI (786-0 renal) | TGI (MDA-MB-435) | TGI (K-562 leukemia) | TGI (CAKI-1 renal) | TGI (EKVX NSCLC) | TGI (MOLT-4 leukemia) | TGI (SNB-19 CNS) | TGI (U251 CNS) | TGI (HOP-92 NSCLC) | TGI (BT-549 breast) | GI50 (SF-268 CNS) | GI50 (HOP-92 NSCLC) | GI50 (MDA-MB-435) | GI50 (K-562 leukemia) | GI50 (CAKI-1 renal) | GI50 (EKVX NSCLC) | GI50 (MOLT-4 leukemia) | GI50 (U251 CNS) | GI50 (BT-549 breast) |
| --- | --- | --- | --- | --- | --- | --- | --- | --- | --- | --- | --- | --- | --- | --- | --- | --- | --- | --- | --- | --- |
| O=C(NC(C(F)(F)F)(C(F)(F)F)P(=O)(Cc1ccccc1)Cc1ccccc1)C(C(F)(F)F)C(F)(F)F | 59.4 µM | 34.4 µM | 34.3 µM | > 100 µM | 97.1 µM | 58.9 µM | 55.1 µM | 59.4 µM | 41.5 µM | – | – | – | – | – | – | – | – | – | – | – |
| CSc1nc(Cl)c2c(n1)Sc1nc3ccccc3n1C2O (stereo not drawn) | 55 µM | 18 µM | > 44.2 µM | > 100 µM | – | > 100 µM | > 100 µM | 97.1 µM | 15.2 µM | 26.6 µM | > 84.4 µM | – | – | – | – | – | – | – | – | – |
| CCCn1cc2c3c(cccc31)C1C=C(C)CN(C)C1C2 (stereo not drawn) | 47.2 µM | – | – | 22.6 µM | 44.2 µM | 48 µM | 40.2 µM | 62.1 µM | 52 µM | 37.9 µM | – | – | – | – | – | – | – | – | – | – |
| COc1cc2c(c(OC)c1)[C@H](C)N(Cc1ccccc1)C(C)C2 (stereo partly drawn) | > 100 µM | > 100 µM | 37.8 µM | > 100 µM | > 100 µM | > 100 µM | > 100 µM | > 100 µM | – | – | > 100 µM | – | – | – | – | – | – | – | – | – |
| c1cncc(CSc2nc3ccccc3nc2-c2cccs2)c1 | > 100 µM | > 100 µM | – | > 100 µM | – | > 100 µM | 98.7 µM | > 100 µM | – | – | – | – | – | – | – | – | – | – | – | – |
| CC(C)(C)c1ccnc(N=C2N=C(Nc3cc(C(C)(C)C)ccn3)c3ccccc32)c1 | 37.9 µM | 43.9 µM | – | > 100 µM | 53.1 µM | > 100 µM | 85.8 µM | 44.4 µM | 51 µM | 47.1 µM | – | – | – | – | – | – | – | – | – | – |
| N#C/C(C(=O)NCc1ccccc1)=C(/N)N1CCCC1 | > 100 µM | > 100 µM | > 100 µM | > 100 µM | > 100 µM | > 100 µM | > 100 µM | > 100 µM | > 100 µM | > 100 µM | – | – | – | – | – | – | – | – | – | – |
| CC1(C)N=C(N)N=C(N)N1c1cccc(Cl)c1 | > 100 µM | > 100 µM | > 100 µM | > 100 µM | > 100 µM | > 100 µM | – | > 100 µM | > 100 µM | > 100 µM | > 100 µM | – | – | – | – | – | – | – | – | – |
| C=C(C)[C@H]1CC23C(=O)[C@@](C)(C[C@H]2C1(C)C)C(=O)C(C(=O)C(C)C)=C3O | 50.4 µM | 35 µM | 31.3 µM | 49.3 µM | 55.3 µM | 28.8 µM | 19 µM | 69.7 µM | 39.7 µM | – | 37.7 µM | – | – | – | – | – | – | – | – | – |
| CCCCNC(=O)Cn1c2ccc(Br)cc2c2nc3ccccc3nc21 | > 100 µM | > 100 µM | > 100 µM | > 100 µM | > 100 µM | – | > 100 µM | > 100 µM | > 100 µM | > 100 µM | – | – | – | – | – | – | – | – | – | – |
| CCOC(=O)c1csc(NC(=O)CCN2CCCC2)n1 | – | – | > 100 µM | > 100 µM | > 100 µM | > 100 µM | > 100 µM | > 100 µM | > 100 µM | > 100 µM | – | – | – | – | – | – | – | – | – | – |
| CNC(=S)N1CCN(C(C)=O)C1=S | > 100 µM | > 100 µM | > 100 µM | > 100 µM | > 100 µM | 91.9 µM | > 100 µM | – | 17.2 µM | > 100 µM | 51.7 µM | – | – | – | – | – | – | – | – | – |
| CN(C)CCCNC(=O)N/N=C/c1ccccc1 | > 100 µM | – | – | > 100 µM | – | – | > 100 µM | > 100 µM | > 100 µM | – | – | – | – | – | – | – | – | – | – | – |
| NCCCCNCCCN1CCOC1=O | > 100 µM | > 100 µM | > 100 µM | > 100 µM | > 100 µM | > 100 µM | > 100 µM | > 100 µM | > 100 µM | – | > 100 µM | – | – | – | – | – | – | – | – | – |
| CCN(CC)CCCCNc1c2ccc(Cl)cc2nc2ccc(OC)cc12 | 3.33 µM | – | 2.31 µM | 3.56 µM | 3.76 µM | 3.98 µM | 2.79 µM | – | 2.16 µM | 1.87 µM | 3.77 µM | 0.797 µM | 0.271 µM | 1.05 µM | 0.578 µM | 1.14 µM | 0.608 µM | 0.306 µM | 0.45 µM | 1.85 µM |
| COc1cc(N=Nc2ccc(OC)c(S(=O)(=O)O)c2)c(C)cc1N=Nc1ccc(/C=C/c2ccc(N=[N+]([O-])c3ccc(/C=C/c4ccc(N=Nc5cc(C)c(N=Nc6ccc(OC)c(S(=O)(=O)O)c6)cc5OC)cc4S(=O)(=O)O)c(S(=O)(=O)O)c3)cc2S(=O)(=O)O)c(S(=O)(=O)O)c1 | > 100 µM | – | – | > 100 µM | – | > 100 µM | > 100 µM | > 100 µM | > 100 µM | > 100 µM | – | – | – | – | – | – | – | – | – | – |
| COc1ccc([C@]23CCC4(OCC(C)(C)CO4)[C@H]4CON(O[C@H](O[C@@H]5CCCCC5C(C)(C)c5ccccc5)C2)[C@@H]43)cc1OC (stereo partly drawn) | – | > 100 µM | > 100 µM | > 100 µM | 39 µM | > 100 µM | 53.1 µM | > 100 µM | > 100 µM | > 100 µM | > 100 µM | – | – | – | – | – | – | – | – | – |
| CC(C)=CCc1c(O)cc2oc(-c3ccc(O)cc3O)cc(=O)c2c1O | > 100 µM | 74.5 µM | > 75.5 µM | > 59.2 µM | > 81.4 µM | > 100 µM | – | > 100 µM | > 100 µM | > 88.6 µM | > 76.2 µM | – | – | – | – | – | – | – | – | – |
| CCN(CC)C(=S)N/N=C(/c1ccccc1)c1ccccn1 | – | 1.19 µM | > 47.3 µM | > 100 µM | 11 µM | > 56.7 µM | > 100 µM | > 100 µM | 18.8 µM | > 100 µM | > 100 µM | – | – | – | – | – | – | – | – | – |
| CC(=O)Oc1ccc2c(-c3ccccc3)c(Oc3ccc(Cl)cc3)c(=O)oc2c1 | 22.6 µM | 30 µM | – | 31.6 µM | 32.3 µM | 29 µM | 34.7 µM | 30 µM | 16.3 µM | 22.4 µM | 32.9 µM | – | – | – | – | – | – | – | – | – |
| O=C1c2cc3c(cc2CC12Cc1ccc4c(c1C2=O)CCC4)CCC3 (stereo not drawn) | > 100 µM | > 100 µM | > 100 µM | > 100 µM | > 100 µM | > 100 µM | > 100 µM | > 100 µM | > 100 µM | > 100 µM | – | – | – | – | – | – | – | – | – | – |
| O=c1c2ccc(Cl)cc2oc2c(CNc3ccc(S(=O)(=O)Nc4ncccn4)cc3)cccc12 | – | > 100 µM | > 100 µM | > 100 µM | > 100 µM | > 100 µM | > 100 µM | > 100 µM | > 100 µM | > 100 µM | > 100 µM | – | – | – | – | – | – | – | – | – |
